# Article PMC8596838, “Xylose‐Configured Cyclophellitols as Selective Inhibitors for Glucocerebrosidase” (Chembiochem, 2021)
# Target: T1, GBA2 E527G mutant and E527G/D667G double mutant (Homo sapiens, UniProt Q9HCG7, E527G)
# T1 construct: expressed in transfected cells; host or cells: HEK293T
# T1 sequence (Q9HCG7 1-927 E527G): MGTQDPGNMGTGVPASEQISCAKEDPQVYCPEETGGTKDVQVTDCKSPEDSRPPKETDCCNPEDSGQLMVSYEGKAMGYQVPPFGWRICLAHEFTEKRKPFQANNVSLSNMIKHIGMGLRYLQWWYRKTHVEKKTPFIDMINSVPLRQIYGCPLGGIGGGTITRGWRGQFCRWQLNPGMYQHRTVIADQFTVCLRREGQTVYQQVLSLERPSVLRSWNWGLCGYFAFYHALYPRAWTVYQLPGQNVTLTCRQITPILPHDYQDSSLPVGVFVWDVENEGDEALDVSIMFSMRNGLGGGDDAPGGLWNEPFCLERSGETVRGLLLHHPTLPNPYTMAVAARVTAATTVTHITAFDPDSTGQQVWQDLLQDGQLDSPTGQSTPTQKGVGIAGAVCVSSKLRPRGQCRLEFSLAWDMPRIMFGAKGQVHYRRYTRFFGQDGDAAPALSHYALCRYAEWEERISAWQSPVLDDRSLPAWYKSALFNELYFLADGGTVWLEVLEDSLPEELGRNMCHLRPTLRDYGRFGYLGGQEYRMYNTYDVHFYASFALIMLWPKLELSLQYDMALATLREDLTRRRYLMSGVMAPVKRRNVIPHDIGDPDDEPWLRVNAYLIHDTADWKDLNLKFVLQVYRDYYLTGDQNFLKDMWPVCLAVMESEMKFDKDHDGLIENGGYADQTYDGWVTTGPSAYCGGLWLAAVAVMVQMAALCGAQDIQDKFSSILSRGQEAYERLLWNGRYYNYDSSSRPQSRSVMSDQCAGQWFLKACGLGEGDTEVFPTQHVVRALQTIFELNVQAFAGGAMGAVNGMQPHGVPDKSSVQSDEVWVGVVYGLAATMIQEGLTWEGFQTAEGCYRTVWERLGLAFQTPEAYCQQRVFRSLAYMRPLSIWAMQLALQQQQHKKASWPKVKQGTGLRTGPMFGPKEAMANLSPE
# Experiment: ABP labeling of mutant GBA2 expressed in HEK293T cells
# Format: biochemical
# Conditions: HEK293T cells expressing mutant GBA2
# Experimental: Figure 4 (A) ABP labeling of β‐D‐glucosidases. A lysate of HEK293T cells expressing human GBA, GBA2 and GBA3 was incubated with indicated ABPs (6, 9 or 10) for 30 min at pH 6.0. Fluorescently labeled proteins were visualized after SDS‐PAGE. (B) Labeling with ABP 6 of wild type or mutant GBA2 (E527G nucleophile mutation and D667G acid/base mutation) expressed in HEK293T cells.
# Cell culture: HEK293T (CRL‐3216) were purchased from ATCC (Manassas, VA, USA). HEK293T cells were cultured in DMEM medium (Sigma‐Aldrich), supplied with 10 % (v/v) FCS, 0.1 % (w/v) penicillin/streptomycin and 1 % (v/v) Glutamax, under 7 % CO2. […] First the GBA Knockout cells were generated using the annealed oligonucleotides (top strand) 5’‐CACCGCGCTATGAGAGTACACGCAG‐3’ and (bottom strand 5’‐AAACCTGCGTGTACTCTCATAGCGC‐3’ and after ligation in the BbsI site of the px330 and subsequent transfection into the HEK293T cells. Single cells were created and the different clones were analyzed for lack of expression of GBA with enzyme activity assays and ABPs and subsequent genomic sequence analysis. The true GBA knockout cells were next used to create the GBA/GBA2 double knockout cells (using the px330 and the following annealed and ligated oligonucleotides (top strand 5‐CACCGGACGGACTGCTGCAATCCGG‐3’ and bottom strand 5’‐AAACCCGGATTGCAGCAGTCCGTCC‐3’. […]
smiles,measurement,value
CN1/C(=C/C=C/C=C/C2=[N+](CCCCCC(=O)NCc3cn(CCCCCCCCN4[C@H]5[C@H](O)[C@@H](O)[C@H](O)C[C@H]54)nn3)c3ccccc3C2(C)C)C(C)(C)c2ccccc21 (stereo partly shown) [ABP 6],labeling of GBA2 E527G mutant and E527G/D667G double mutant,no longer labeled
